Experimental data taken from patent publication US6541020B1, “Methods and compositions for administration of therapeutic reagents” (Trimeris, Inc., priority 1999, dated 2003).

Legend:
[1] = Pharmacokinetic study of T1249 in hydrogel composition or aqueous solution, subcutaneous injection, blood plasma levels; format: in vivo, Sprague-Dawley rats; details: s.c.; for PTF / AUC(0-inf) / Cmax / Tmax / AUC(0-t) / half-life: approximately 1.25 mg/kg, rat plasma; for AUC(0-inf) / Cmax / Tmax / AUC(0-t) / half-life: Sprague-Dawley, rat, plasma, sc, 1.25 mg/kg; for AUC(0-t): read-out: AUC(0-12); for half-life: read-out: t1/2,terminal (converted)
Procedure: (§1) Pharmacokinetic parameters were calculated from the data as follows: The terminal elimination phase half (t½, terminal) was calculated using the equation 0.693/k, where k equals the terminal elimination rate constant and is determined from a log/linear regression of at least three data points from the plasma concentration-time curve. Cmax was defined as the highest observed concentration between 0 and 12 hours postdose, and tmax is the collection time corresponding to Cmax. The area under the plasma concentration-time curve from 0 to 12 hours postdose (AUC(0-12) was calculated using the trapezoidal rule. AUC(0-∞) was calculated using the trapezoidal rule and extrapolated to infinity by dividing the last plasma concentration by the terminal elimination rate constant (k). PTF values (peak-trough fluctuations) were calculated using the equation (Cmax-Cmin)/Cav. Cmin was defined as the concentration of T20 at 12 hours postdose, and Cav was calculated using the equation AUC(0-12)/12.
Carrier hydrogel compositions containing T1249 were prepared in both a hydrogel and aqueous compositions. A hydrogel composition was prepared by adding 12.5 mg of lyophilized T1249 to 1 mL of the F5 hydrogel formulation described above in Section 6. A pharmaceutical composition of T1249 in aqueous solution was also prepared by combining lyophilized T1249 (12.5 mg) to 2 mL of water for injection (USP). The contained 12.5 mg of T1249, 25 mg mannitol and sodium hydroxide/hydrochloric acid to adjust the pH to 6.5.
The T1249 carrier hydrogel composition were administered to Sprague-Dawley rats according to the protocol described in Section 7.1, above, for T20. The rats were divided randomly into two groups (Groups I and II). The rats in Group I were each administered the above-described hydrogel compositions containing T1249. The rats in Group II were each administered the above-described composition of T1249 in aqueous buffer as a control. Blood plasma levels of T1249 were measured from samples collected from the animals immediately after (0 hours) and 1, 2, 4, 8, 12, 24, 36 and 48 hours post-dosing.
Pharmacokinetic parameters were calculated from the data as described in Section 7.1, above.

[2] = Pharmacokinetic study of T20 in hydrogel compositions or aqueous solution, single subcutaneous bolus injection, blood plasma levels; format: in vivo, Sprague-Dawley rats; details: for Tmax / half-life / AUC(0-inf) / Cmax / AUC(0-t): male, Sprague-Dawley, sc; for AUC(0-t): read-out: AUC(0-12)
Procedure: Pharmacokinetic studies were performed on 16 cannulated male Sprague-Dawley rats having an average weight of 0.230 kg (StdDev=0.008 kg). Specifically, the rats were divided randomly into four groups (Groups I-IV). The rats in Group I were each administered T20 at a concentration of 50 mg/mL in a higher viscosity gel system (i.e., of the F2-50 pharmaceutical composition described in Section 6.1, supra. The rats in Group II were each administered T20 at a concentration of 25 mg/mL in a higher viscosity gel system (i.e., of the F2-25 pharmaceutical composition described in Section 6.1, supra). The rats in Group III were each administered T20 at a concentration of 25 mg/mL in a lower viscosity gel system (i.e., of the F5-25 pharmaceutical composition described in Section 6.1, supra). The rats in Group IV were administered T20 at a concentration of 25 mg/mL in an aqueous buffer (i.e., the WI-25 pharmaceutical composition described supra) as a control. The rats in all of the groups received the T20 via a single subcutaneous bolus injection of 25 μL of the formulation on the right side of the abdomen through a 30G½ Gauge needle. Each group received a dose level of approximately 5 mg/kg (Group I) or 2.5 mg/kg (Groups II-IV). More specifically, the dosages received by the animals in Groups I-IV were 6.71 mg/kg, 2.90 mg/kg, 3.27 mg/kg and 2.78 mg/kg, respectfully. These dosages were selected to approximate the dose levels, on a mg/cm^2 basis, to be used in humans.
Blood plasma levels of T20 were measured from samples collected from the animals immediately after (0 hours) and 1, 2, 4, 8, 12, and 24 hours post-dosing.
as §1

[3] = Group I: 12.5 mg/mL T1249 in low viscosity hydrogel (F5)
[4] = Group II: 12.5 mg/mL T1249 in aqueous buffer (control)
[5] = T20 as a subcutaneous injection of a hydrogel
[6] = 2.9 mg/kg, Group II: F2-25, 25 mg/mL T20 in high viscosity hydrogel, single s.c. bolus 25 μL, 2.90 mg/kg, rat plasma
[7] = Group I: F2-50, 50 mg/mL T20 in high viscosity hydrogel, single s.c. bolus 25 μL, 6.71 mg/kg, rat plasma
[8] = Group III: F5-25, 25 mg/mL T20 in lower viscosity hydrogel, single s.c. bolus 25 μL, 3.27 mg/kg, rat plasma
[9] = Group IV: WI-25, 25 mg/mL T20 in aqueous buffer (control), single s.c. bolus 25 μL, 2.78 mg/kg, rat plasma

`CC[C@H](C)[C@H](NC(=O)[C@H](CCC(N)=O)NC(=O)[C@H](C)NC(=O)[C@H](CCC(N)=O)NC(=O)[C@H](CCC(=O)O)NC(=O)[C@H](CC(C)C)NC(=O)[C@H](CC(C)C)NC(=O)[C@H](C)NC(=O)[C@@H](NC(=O)[C@@H](NC(=O)[C@H](CCCCN)NC(=O)[C@H](CCC(N)=O)NC(=O)[C@H](CCC(=O)O)NC(=O)[C@H](Cc1c[nH]c2ccccc12)NC(=O)[C@H](CCC(=O)O)NC(=O)[C@H](CCC(N)=O)NC(=O)[C@H](Cc1c[nH]c2ccccc12)NC(C)=O)[C@@H](C)CC)[C@@H](C)O)C(=O)N[C@@H](CCC(N)=O)C(=O)N[C@@H](CCC(N)=O)C(=O)N[C@@H](CCC(=O)O)C(=O)N[C@@H](CCCCN)C(=O)N[C@@H](CC(N)=O)C(=O)N[C@@H](CCC(=O)O)C(=O)N[C@@H](Cc1ccc(O)cc1)C(=O)N[C@@H](CCC(=O)O)C(=O)N[C@@H](CC(C)C)C(=O)N[C@@H](CCC(N)=O)C(=O)N[C@@H](CCCCN)C(=O)N[C@@H](CC(C)C)C(=O)N[C@@H](CC(=O)O)C(=O)N[C@@H](CCCCN)C(=O)N[C@@H](Cc1c[nH]c2ccccc12)C(=O)N[C@@H](C)C(=O)N[C@@H](CO)C(=O)N[C@@H](CC(C)C)C(=O)N[C@@H](Cc1c[nH]c2ccccc12)C(=O)N[C@@H](CCC(=O)O)C(=O)N[C@@H](Cc1c[nH]c2ccccc12)C(=O)N[C@@H](Cc1ccccc1)C(N)=O` [T1249] showed a PTF [1, 3] of 1.62 ± 0.086, a PTF [1, 4] of 4.44 ± 0.680 and an AUC(0-inf) [1, 3] of 29100 ± 5200 ng·h/mL. The Cmax [1, 3] was 1900 ± 334 ng/mL, the Tmax [1, 3] was 8 h and the AUC(0-t) [1, 3] was 28200 ± 5640 ng·h/mL. The half-life [1, 3] was 3.37 ± 0.68 h, the AUC(0-inf) [1, 4] was 18400 ± 4070 ng·h/mL and the Cmax [1, 4] was 3320 ± 215 ng/mL. The Tmax [1, 4] was 2 h, the AUC(0-t) [1, 4] was 18300 ± 4060 ng·h/mL and the half-life [1, 4] was 2.28 ± 0.122 h. For the same molecule, the “pharmacokinetic properties, hydrogel versus aqueous solution” value ([1]; T1249 administered in a hydrogel composition) was “improved pharmacokinetic properties”.
For enfuvirtide, the “T20 plasma concentration levels within 12 hours” value ([2]; T20 administered by a hydrogel, s.c.) was “remained elevated”, the “T20 plasma concentration levels within 12 hours” value ([2]; T20 administered in an aqueous solution, s.c.) was “already cleared the blood stream” and the “change of bioavailability, hydrogel versus aqueous solution” value [2, 5] was “approximately doubling”. For the same molecule, the “change of half-life, hydrogel versus aqueous solution” value [2, 5] was “approximately doubling”, the “dose proportionality of pharmacokinetics (AUC, t½)” value ([2]; high viscosity hydrogel formulation of T20, s.c., both dose levels) was “linearity of pharmacokinetics within the dose range tested” and the Tmax ([2]; rat, plasma, 2.78 mg/kg, Group IV: WI-25, 25 mg/mL T20 in aqueous buffer (control), single s.c. bolus 25 μL, 2.78 mg/kg, rat plasma) was about 2 h. It also gave a Tmax ([2]; rat, plasma, 2.9 mg/kg, Group II: F2-25, 25 mg/mL T20 in high viscosity hydrogel, single s.c. bolus 25 μL, 2.90 mg/kg, rat plasma) of 4 h, a Tmax ([2]; rat, plasma, 3.27 mg/kg, Group III: F5-25, 25 mg/mL T20 in lower viscosity hydrogel, single s.c. bolus 25 μL, 3.27 mg/kg, rat plasma) of 4 h and a half-life ([2]; rat, plasma, T20 administered in a hydrogel, s.c., depending on the exact hydrogel formulation and T20 dosage, read-out: group mean half-life values) of 4.27 to 4.75 h. It also gave an AUC(0-inf) [2, 6] of 24800 ± 4860 ng·h/mL, a Cmax [2, 6] of 2830 ± 316 ng/mL and an AUC(0-t) [2, 6] of 19600 ± 3450 ng·h/mL. It also gave a half-life ([2]; 2.9 mg/kg, Group II: F2-25, 25 mg/mL T20 in high viscosity hydrogel, single s.c. bolus 25 μL, 2.90 mg/kg, rat plasma, read-out: t1/2,terminal (converted)) of 4.27 ± 0.159 h, an AUC(0-inf) [2, 7] of 55400 ± 9150 ng·h/mL and a Cmax [2, 7] of 5970 ± 499 ng/mL. It also gave an AUC(0-t) [2, 7] of 43400 ± 4480 ng·h/mL, a half-life ([2]; Group I: F2-50, 50 mg/mL T20 in high viscosity hydrogel, single s.c. bolus 25 μL, 6.71 mg/kg, rat plasma, read-out: t1/2,terminal (converted)) of 4.75 ± 0.285 h and an AUC(0-inf) [2, 8] of 32800 ± 9710 ng·h/mL. For the same molecule, the Cmax [2, 8] was 3780 ± 751 ng/mL, the AUC(0-t) [2, 8] was 25700 ± 6140 ng·h/mL and the half-life ([2]; Group III: F5-25, 25 mg/mL T20 in lower viscosity hydrogel, single s.c. bolus 25 μL, 3.27 mg/kg, rat plasma, read-out: t1/2,terminal (converted)) was 4.61 ± 0.618 h. It also gave an AUC(0-inf) [2, 9] of 6080 ± 1610 ng·h/mL, a Cmax [2, 9] of 1550 ± 640 ng/mL and an AUC(0-t) [2, 9] of 5870 ± 1690 ng·h/mL. For the same molecule, the half-life ([2]; Group IV: WI-25, 25 mg/mL T20 in aqueous buffer (control), single s.c. bolus 25 μL, 2.78 mg/kg, rat plasma, read-out: t1/2,terminal (converted)) was 2.19 h.
